Reference: ChEMBL document CHEMBL4311946, “Mechanistic Insight on the Mode of Action of Colletoic Acid” (J Med Chem, 2019)
Calls of active or inactive are those of the source. The rule behind the calls is not given here.

Experiments:
[1] = target: 11-beta-hydroxysteroid dehydrogenase 1 (Homo sapiens, UniProt P28845, C272S); test: Inhibition of N-terminal MKHQHQHQHQHQHQQPL-tagged 11beta-HSD1 C272S mutant (unknown origin) expressed in Escherichia coli BL21 (DE3) using cortisol as substrate measured for 1 hr in presence of NADPH by fluorescence assay
[2] = target: T1, 11-beta-hydroxysteroid dehydrogenase type 2 (Homo sapiens, UniProt P80365); test: Inhibition of 11beta-HSD2 (unknown origin) expressed in HEK293 cells using cortisone as substrate measured after 2 hrs in presence of NAD+ by HTRF assay; type: ADME, cell-based
T1 sequence (P80365 whole entry): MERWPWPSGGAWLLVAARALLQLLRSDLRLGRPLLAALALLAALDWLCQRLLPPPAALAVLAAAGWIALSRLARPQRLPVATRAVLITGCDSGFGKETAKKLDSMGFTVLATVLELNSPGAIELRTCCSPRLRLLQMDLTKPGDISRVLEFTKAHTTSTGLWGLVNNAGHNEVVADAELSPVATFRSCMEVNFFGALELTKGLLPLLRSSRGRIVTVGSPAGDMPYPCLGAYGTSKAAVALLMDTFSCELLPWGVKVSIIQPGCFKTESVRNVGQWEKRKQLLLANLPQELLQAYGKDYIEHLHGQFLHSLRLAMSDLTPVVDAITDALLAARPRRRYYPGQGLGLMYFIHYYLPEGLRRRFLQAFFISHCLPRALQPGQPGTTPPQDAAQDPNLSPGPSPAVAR

3T3-L1 [3] = test: Cytotoxicity against mouse 3T3L1 preadipocytes up to 1 mM measured after 72 hrs under non-differentiating medium by celltiter-glo luminescent cell viability assay; type: cell-based; conditions: 3t3-l1, 72 h
3T3-L1 [4] = test: Cytotoxicity against mouse 3T3L1 cells up to 1 mM measured after 72 hrs under induction medium containing dehydrocorticosterone/cortisone by celltiter-glo luminescent cell viability assay; type: cell-based; conditions: 3t3-l1, 72 h
3T3-L1 [5] = test: Anti-adipogenic activity in mouse 3T3L1 preadipocytes assessed as decrease in lipid accumulation at 50 uM incubated for 48 hrs under induction medium containing dehydrocorticosterone/cortisone followed by shifting to differentiation medium and measured after 7 days by Oil red O staining-based microscopic analysis; type: functional, cell-based
3T3-L1 [6] = test: Anti-adipogenic activity in mouse 3T3L1 preadipocytes assessed as decrease in lipid accumulation at 50 uM measured after 3 days under induction medium containing dehydrocorticosterone/cortisone by Oil red O staining-based microscopic analysis; type: functional, cell-based
Homo sapiens [7] = test: Anti-adipogenic activity in human subcutaneous preadipocytes assessed as decrease in lipid accumulation at 50 uM incubated for 48 hrs under induction medium containing hydrocortisone hemi-succinate prior to compound washout followed by shifting to differentiation medium containing compound supplemented with fresh medium every 48 to 72 hrs for 9 to 14 days by oil red O staining-based microscopic analysis; type: functional, cell-based
Homo sapiens [8] = organism: Homo sapiens; test: Anti-adipogenic activity in human visceral preadipocytes assessed as decrease in lipid accumulation at 50 uM measured after 3 days under induction medium containing hydrocortisone hemi-succinate by oil red O staining-based microscopic analysis; type: functional, cell-based
3T3-L1 [9] = test: Anti-adipogenic activity in mouse 3T3L1 preadipocytes assessed as reduction in C/EBPbeta mRNA expression at 50 to 100 uM measured daily for 2 days under induction media containing dehydrocorticosterone/cortisone by SYBR green dye-based qRT-PCR analysis; type: functional, cell-based
3T3-L1 [10] = test: Anti-adipogenic activity in mouse 3T3L1 preadipocytes assessed as reduction in C/EBPdelta mRNA expression at 50 to 100 uM measured daily for 2 days under induction media containing dehydrocorticosterone/cortisone by SYBR green dye-based qRT-PCR analysis; type: functional, cell-based
3T3-L1 [11] = test: Anti-adipogenic activity in mouse 3T3L1 preadipocytes assessed as reduction in S6K1 mRNA expression at 50 to 100 uM measured daily for 2 days under induction media containing dehydrocorticosterone/cortisone by SYBR green dye-based qRT-PCR analysis; type: functional, cell-based
3T3-L1 [12] = test: Anti-adipogenic activity in differentiated mouse 3T3L1 cells assessed as reduction in PPARgamma expression at 50 uM measured on day 7 by Western blot analysis; type: functional, cell-based
3T3-L1 [13] = test: Anti-adipogenic activity in differentiated mouse 3T3L1 cells assessed as reduction in PGC1alpha expression at 50 uM measured on day 7 by Western blot analysis; type: functional, cell-based
Fibroblast = test: Effect on nascent protein synthesis in mouse fibroblasts assessed as reduction in O-Propargyl-puromycin incorporation at 50 uM measured after 2 hrs by fluorescent azide/pico green dye-based confocal microscopic analysis; type: ADME, cell-based
[14] = target: T2, Glucocorticoid receptor (Homo sapiens) (UniProt P04150); test: Antagonist activity at GR in human MDA-MB-231 cells at 50 uM measured after 4 hrs in presence of dexamethasone by luciferase reporter gene assay; type: cell-based
T2 sequence (whole entry): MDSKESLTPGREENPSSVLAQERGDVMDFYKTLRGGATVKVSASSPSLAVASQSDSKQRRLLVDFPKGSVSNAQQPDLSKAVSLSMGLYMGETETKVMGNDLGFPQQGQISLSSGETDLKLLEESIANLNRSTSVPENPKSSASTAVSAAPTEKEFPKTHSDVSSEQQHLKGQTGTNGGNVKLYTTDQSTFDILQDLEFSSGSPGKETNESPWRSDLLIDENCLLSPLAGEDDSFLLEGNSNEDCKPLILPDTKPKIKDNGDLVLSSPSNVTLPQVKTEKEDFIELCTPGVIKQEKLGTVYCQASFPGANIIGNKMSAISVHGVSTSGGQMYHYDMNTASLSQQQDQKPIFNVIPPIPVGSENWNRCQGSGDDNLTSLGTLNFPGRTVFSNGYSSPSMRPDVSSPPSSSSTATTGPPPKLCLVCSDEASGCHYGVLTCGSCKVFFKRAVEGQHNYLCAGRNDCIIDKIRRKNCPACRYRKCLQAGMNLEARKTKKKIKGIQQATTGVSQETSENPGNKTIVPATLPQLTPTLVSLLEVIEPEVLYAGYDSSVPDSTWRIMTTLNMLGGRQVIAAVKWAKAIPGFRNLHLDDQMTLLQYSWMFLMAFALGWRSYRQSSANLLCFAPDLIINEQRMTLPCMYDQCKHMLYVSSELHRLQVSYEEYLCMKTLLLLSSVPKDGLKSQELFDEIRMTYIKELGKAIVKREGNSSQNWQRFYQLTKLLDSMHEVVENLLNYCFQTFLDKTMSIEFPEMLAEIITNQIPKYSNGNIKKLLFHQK

[15] = Half life in human plasma; type: ADME, cell-free
[16] = Stability in mouse plasma; type: ADME, cell-free
[17] = Half life in simulated gastric fluid; type: ADME
[18] = target: 11-beta-hydroxysteroid dehydrogenase 1 (Homo sapiens, UniProt P28845); test: Inhibition of 11beta-HSD1 in human microsomes using [3H] cortisone as substrate by scintillation proximity assay
Chain of 11-beta-hydroxysteroid dehydrogenase 1 (Homo sapiens, UniProt P28845) (P28845 whole entry): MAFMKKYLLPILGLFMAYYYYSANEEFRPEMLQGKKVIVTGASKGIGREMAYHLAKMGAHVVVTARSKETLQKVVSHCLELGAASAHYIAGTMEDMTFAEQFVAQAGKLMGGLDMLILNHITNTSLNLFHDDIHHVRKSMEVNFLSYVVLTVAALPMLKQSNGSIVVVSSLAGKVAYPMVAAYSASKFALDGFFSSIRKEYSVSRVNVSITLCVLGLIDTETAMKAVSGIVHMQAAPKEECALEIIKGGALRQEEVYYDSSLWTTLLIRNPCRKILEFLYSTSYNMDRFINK

Chain of 11-beta-hydroxysteroid dehydrogenase 1 (Homo sapiens, UniProt P28845, C272S) (P28845 whole entry C272S): as the sequence (P28845 whole entry) above, with C272S counted along it

- IC50 [1]: 4.1 µM
- IC50 [2]: > 500 µM
- Activity [14]: inactive
- half-life [15]: > 2880 min
- Stability [16]: Unstable
- half-life [17]: < 120 min
- IC50 [18]: 13 nM
Structure (SMILES): CC1=CC[C@@]2(C[C@@H]1O)[C@@H](C(=O)O)CC[C@H]2C(C)C
- Activity (3T3-L1 [3]): Non-Toxic
- Activity (3T3-L1 [4]): Non-Toxic
- Activity (3T3-L1 [5]): Active
- Activity (3T3-L1 [6]): inactive
- Activity (Homo sapiens [7]): Active
- Activity (Homo sapiens [8]): inactive
- Activity (3T3-L1 [9]): Active
- Activity (3T3-L1 [10]): Active
- Activity (3T3-L1 [11]): Active
- Activity (3T3-L1 [12]): Active
- Activity (3T3-L1 [13]): Active
- Activity (Fibroblast): Non-Toxic
